Source: US20260166097A1, “METHODS AND COMPOSITIONS CONCERNING BACTEROIDES OVATUS” (BOARD OF REGENTS, THE UNIVERSITY OF TEXAS SYSTEM, priority 2022, published 2026)

Legend:
allo-HSCT mice = settings: cited from earlier work
steroid-refractory GVHD = settings: human, in vivo
From the text: The inventors examined patient antibiotic treatment histories during the period from allo-HSCT to the onset of aGI-GVHD and looked for associations between treatment with various antibiotic classes and steroid response for GVHD (FIG. 3A). In our institution, quinolone, cephalosporine, carbapenem and intravenous vancomycin were frequently used in our cohort (FIG. 3B).
A total of 37 aGI-GVHD patients who underwent allo-HSCT during 2017 to 2019 at MD Anderson Cancer Center provided stool samples for the biorepository, and these patient stool samples were analyzed retrospectively as a discovery cohort. Acute GVHD was diagnosed by clinical and/or pathological findings and graded according to standard criteria^40. […] The inventors determined treatment response as previously reported^19: briefly, a lack of response on the basis of organ assessment after at least 3 days of high-dose systemic glucocorticoid therapy; a lack of improvement after 7 days; or treatment failure during steroid tapering or an inability to taper the dose to <0.5 mg/kg/day of methylprednisolone. […] As another cohort, a total of 16 aGI-GVHD patients who underwent allo-HSCT during 2017 to 2020 at MD Anderson Cancer Center provided stool samples collected on day 14 after allo-HSCT for the biorepository, and these patient stool samples were analyzed retrospectively. […]

Q: With O=C[C@H](O)[C@@H](O)[C@H](O)CO [xylose] as the compound, how does the GVHD severity (allo-HSCT mice; supplementation in meropenem-treated allogeneic mice) read?
A: ameliorates GVHD severity

Q: Which “Association of antibiotic exposure with steroid-refractory GVHD” value (steroid-refractory GVHD) does the source give for CCCCCCCCCC(=O)N[C@@H](Cc1c[nH]c2ccccc12)C(=O)N[C@H](CC(N)=O)C(=O)N[C@@H](CC(=O)O)C(=O)N[C@@H]1C(=O)NCC(=O)N[C@@H](CCCN)C(=O)N[C@@H](CC(=O)O)C(=O)N[C@H](C)C(=O)N[C@@H](CC(=O)O)C(=O)NCC(=O)N[C@H](CO)C(=O)N[C@@H]([C@H](C)CC(=O)O)C(=O)N[C@@H](CC(=O)c2ccccc2N)C(=O)O[C@@H]1C [daptomycin] here?
A: significantly associated with steroid-refractory GVHD

Q: Which “Colonic GVHD severity” value (allo-HSCT mice; allo-HSCT mice treated with meropenem in drinking water compared to mice not treated) does the source give for C[C@@H](O)[C@H]1C(=O)N2C(C(=O)O)=C(S[C@@H]3CN[C@H](C(=O)N(C)C)C3)[C@H](C)[C@H]12 [meropenem] here?
A: aggravated colonic GVHD
